Assay results published in ChEMBL document CHEMBL3784940 (Bioorg Med Chem Lett, 2016).
Active and inactive are the calls of the source. The calls are words filed in the database; no cut-off is given here.

Experiments:
[1] = biological target: 3',5'-cyclic-AMP phosphodiesterase 4D (Homo sapiens, UniProt Q08499); test: Inhibition of PDE4D (unknown origin) preincubated for 5 mins followed by cAMP addition measured after 15 mins by PDE-Glo phosphodiesterase assay
[2] = Inhibition of Hh signaling pathway in Sufu deficient MEF cells assessed as downregulation of Gli1 mRNA expression at 10 uM after 24 hrs by qRT-PCR analysis; format: cell-based; conditions: Mus musculus
[3] = biological target: Protein smoothened (Homo sapiens) (UniProt Q99835); test: Displacement of BODIPY-cyc from SMO receptor (unknown origin) transfected in HEK293T cells at 10 uM after 16 hrs by laser-scanning confocal microscopic analysis; format: cell-based; conditions: HEK-293T
Chain of Protein smoothened (Homo sapiens) (Q99835 whole entry): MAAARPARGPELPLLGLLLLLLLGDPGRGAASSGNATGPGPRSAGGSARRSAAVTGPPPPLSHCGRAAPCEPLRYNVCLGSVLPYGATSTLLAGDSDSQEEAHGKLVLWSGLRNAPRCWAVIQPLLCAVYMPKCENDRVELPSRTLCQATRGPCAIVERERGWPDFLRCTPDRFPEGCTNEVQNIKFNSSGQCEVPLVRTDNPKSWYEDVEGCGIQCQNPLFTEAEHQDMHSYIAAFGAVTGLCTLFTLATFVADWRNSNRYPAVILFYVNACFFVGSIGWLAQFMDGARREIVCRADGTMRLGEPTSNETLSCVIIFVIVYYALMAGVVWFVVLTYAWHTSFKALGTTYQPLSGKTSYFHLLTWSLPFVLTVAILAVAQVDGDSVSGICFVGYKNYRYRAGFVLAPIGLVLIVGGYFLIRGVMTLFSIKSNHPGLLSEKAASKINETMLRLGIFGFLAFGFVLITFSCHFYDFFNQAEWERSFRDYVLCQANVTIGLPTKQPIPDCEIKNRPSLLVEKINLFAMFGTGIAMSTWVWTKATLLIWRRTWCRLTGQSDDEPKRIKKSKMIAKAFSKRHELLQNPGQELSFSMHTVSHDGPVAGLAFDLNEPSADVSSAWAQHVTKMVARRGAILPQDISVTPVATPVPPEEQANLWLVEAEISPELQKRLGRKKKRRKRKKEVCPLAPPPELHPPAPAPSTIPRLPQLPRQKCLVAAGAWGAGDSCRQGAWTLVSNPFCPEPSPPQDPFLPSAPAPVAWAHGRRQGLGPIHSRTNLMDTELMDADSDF

[4] = Cytotoxicity against mouse TM3 cells assessed as cell viability after 48 hrs by Cell Titer Glo assay; format: cell-based; conditions: read-out: LD50
[5] = Inhibition of Hh signaling pathway in Sufu deficient MEF cells assessed as downregulation of Ptch1 mRNA expression at 10 uM after 24 hrs by qRT-PCR analysis; format: cell-based; conditions: Mus musculus
[6] = Inhibition of luciferase (unknown origin) expressed in BMP-responsive element stable reporter cells; format: cell-based
[7] = Inhibition of Hh signaling pathway in mouse TM3 cells assessed as downregulation of Gli1 gene expression after 48 hrs by luciferase reporter gene assay; format: cell-based; conditions: TM3, 48 h
[8] = Inhibition of Hh signaling pathway in Shh-LIGHT2 incorporated mouse NIH 3T3 cells assessed as downregulation of Gli1 gene expression by luciferase reporter gene assay; format: cell-based; conditions: NIH3T3
[9] = Inhibition of Hh signaling pathway in Sufu deficient MEF cells assessed as downregulation of Ptch1 mRNA expression at 0.1 uM after 24 hrs by qRT-PCR analysis; format: cell-based; conditions: Mus musculus
[10] = Inhibition of Hh signaling pathway in Sufu deficient MEF cells assessed as downregulation of Gli1 mRNA expression at 0.1 uM after 24 hrs by qRT-PCR analysis; format: cell-based; conditions: Mus musculus
[11] = biological target: Protein smoothened (Homo sapiens) (UniProt Q99835); test: Displacement of BODIPY-cyc from SMO receptor (unknown origin) transfected in HEK293T cells at 1 uM after 16 hrs by laser-scanning confocal microscopic analysis; format: cell-based; conditions: HEK-293T
[12] = biological target: Protein smoothened (Homo sapiens) (UniProt Q99835); test: Displacement of BODIPY-cyc from SMO receptor (unknown origin) transfected in HEK293T cells at 200 nM after 16 hrs by laser-scanning confocal microscopic analysis; format: cell-based; conditions: HEK-293T

Chain of 3',5'-cyclic-AMP phosphodiesterase 4D (Q08499 whole entry): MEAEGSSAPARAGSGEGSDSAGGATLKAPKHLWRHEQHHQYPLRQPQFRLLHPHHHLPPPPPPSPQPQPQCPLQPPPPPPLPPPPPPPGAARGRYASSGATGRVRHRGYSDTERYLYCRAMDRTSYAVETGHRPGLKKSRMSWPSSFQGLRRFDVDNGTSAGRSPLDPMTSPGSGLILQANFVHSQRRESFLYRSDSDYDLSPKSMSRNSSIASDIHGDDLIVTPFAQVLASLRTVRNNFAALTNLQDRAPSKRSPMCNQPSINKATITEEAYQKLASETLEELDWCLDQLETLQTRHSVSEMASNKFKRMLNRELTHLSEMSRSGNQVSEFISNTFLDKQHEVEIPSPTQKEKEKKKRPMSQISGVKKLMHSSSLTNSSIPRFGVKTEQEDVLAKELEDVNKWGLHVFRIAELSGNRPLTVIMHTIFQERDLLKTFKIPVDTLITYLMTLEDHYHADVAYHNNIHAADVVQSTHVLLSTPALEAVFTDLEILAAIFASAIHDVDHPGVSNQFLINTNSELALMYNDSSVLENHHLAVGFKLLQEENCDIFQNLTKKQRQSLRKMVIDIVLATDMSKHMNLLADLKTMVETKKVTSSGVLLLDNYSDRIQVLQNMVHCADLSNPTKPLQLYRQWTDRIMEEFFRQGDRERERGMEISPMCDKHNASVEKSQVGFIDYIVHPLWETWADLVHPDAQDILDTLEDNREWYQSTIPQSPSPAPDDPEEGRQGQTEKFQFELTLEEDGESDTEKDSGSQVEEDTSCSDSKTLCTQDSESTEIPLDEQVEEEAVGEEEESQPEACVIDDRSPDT

What does the source list for O=c1c2ccsc2nc(SCC(O)c2ccccc2)n1C1CC1 (configuration not stated)?
IC50 [1]: 6.07 µM; inhibition [2]: 3.2%; inhibition [3]: inactive; CC50 at 48 h [4]: > 50 µM; inhibition [5]: -4.8%; inhibition [6]: inactive

What does the source list for O=C(CSc1nc2sc3c(c2c(=O)n1CC1CC1)CCCC3)c1cccs1?
CC50 at 48 h [4]: > 50 µM; EC50 ([7]; read-out: EC50): 2.07 µM

For C=C(C)Cn1c(SCC(=O)c2cccs2)nc2sc3c(c2c1=O)CCCC3, which IC50 [1] is on record?
The IC50 was 0.38 µM.

And the inhibition [2]?
Its inhibition is 46.5%.

And the inhibition [3]?
Its inhibition is “inactive”.

What about the CC50 at 48 h [4] of the same compound?
Its CC50 at 48 h is greater than 50 µM.

What about the inhibition [5] of the same compound?
The inhibition was 32.2%.

And the EC50 ([7]; read-out: EC50)?
The EC50 was 1.34 µM.

What about the EC50 ([7]; read-out: pEC50 (converted)) of the same compound?
Its EC50 is less than 1 µM.

And the inhibition [6]?
The inhibition was “inactive”.

With C=C(C)Cn1c(SCC(=O)c2cccnc2)nc2sc3c(c2c1=O)CCCC3 as the compound, how does the CC50 at 48 h [4] read?
The CC50 at 48 h was 35.4 µM.

What about the EC50 ([7]; read-out: EC50) of the same compound?
Its EC50 is 11.1 µM.

What does the source list for O=C(CSc1nc2sc3c(c2c(=O)n1CC1CCC1)CCCC3)c1cccs1?
CC50 at 48 h [4]: 45.6 µM; EC50 ([7]; read-out: EC50): 1.99 µM

For C=C(C)Cn1c(SCC(=O)N2CCCCC2)nc2sc3c(c2c1=O)CCCC3, which CC50 at 48 h [4] is on record?
The CC50 at 48 h was 24.6 µM.

What about the EC50 ([7]; read-out: EC50) of the same compound?
Its EC50 is 10.7 µM.

Which CC50 at 48 h [4] does the source give for C=C(C)Cn1c(SCC(=O)c2cccs2)nc2ccccc2c1=O here?
Its CC50 at 48 h is greater than 50 µM.

What about the EC50 ([7]; read-out: EC50) of the same compound?
Its EC50 is greater than 20 µM.

For C=C(C)Cn1c(SCC(=O)c2nccs2)nc2sc3c(c2c1=O)CCCC3, which CC50 at 48 h [4] is on record?
Its CC50 at 48 h is greater than 50 µM.

And the EC50 ([7]; read-out: EC50)?
The EC50 was greater than 20 µM.

Which results are given for O=C(CSc1nc2ccccc2c(=O)n1C1CC1)c1ccccc1?
CC50 at 48 h [4]: > 50 µM; EC50 ([7]; read-out: EC50): 1.16 µM

For C=C(C)Cn1c(SCC(=O)c2cccs2)nc2sccc2c1=O, which CC50 at 48 h [4] is on record?
Its CC50 at 48 h is greater than 50 µM.

And the EC50 ([7]; read-out: EC50)?
The EC50 was 0.931 µM.

Which results are given for C=C(C)Cn1c(SCC(=O)N2CCCCC2C)nc2sc3c(c2c1=O)CCCC3 (configuration not stated)?
inhibition [2]: 35%; CC50 at 48 h [4]: 16.7 µM; inhibition [5]: 49.2%; EC50 ([7]; read-out: EC50): 2.32 µM

With C=C(C)Cn1c(SCC(=O)c2cccs2)nc2sc3c(c2c1=O)CCSC3 as the compound, how does the CC50 at 48 h [4] read?
The CC50 at 48 h was greater than 50 µM.

What about the EC50 ([7]; read-out: EC50) of the same compound?
Its EC50 is 4.57 µM.

With C=CCn1c(SCC(=O)c2cccs2)nc2sc3c(c2c1=O)CCCC3 as the compound, how does the CC50 at 48 h [4] read?
The CC50 at 48 h was greater than 50 µM.

What about the EC50 ([7]; read-out: EC50) of the same compound?
Its EC50 is 2.36 µM.

What does the source list for C=C(C)Cn1c(SCC(=O)c2cccs2)nc2sc3c(c2c1=O)CCNC3?
CC50 at 48 h [4]: 20.1 µM; EC50 ([7]; read-out: EC50): 6.4 µM

What does the source list for O=C(CSc1nc2sc3c(c2c(=O)n1-c1ccccc1)CCCC3)c1cccs1?
CC50 at 48 h [4]: > 50 µM; EC50 ([7]; read-out: EC50): 8.25 µM

For CC(O)(CSc1nc2sccc2c(=O)n1C1CC1)c1ccccc1 (configuration not stated), which CC50 at 48 h [4] is on record?
The CC50 at 48 h was greater than 50 µM.

What about the EC50 ([7]; read-out: EC50) of the same compound?
The EC50 was 0.948 µM.

Which CC50 at 48 h [4] does the source give for C=C(C)Cn1c(SCC(=O)c2ccccn2)nc2sc3c(c2c1=O)CCCC3 here?
The CC50 at 48 h was greater than 50 µM.

What about the EC50 ([7]; read-out: EC50) of the same compound?
The EC50 was greater than 20 µM.

With CN(C)c1ccccc1CN1CCCN(Cc2ccccc2N(C)C)C1c1ccncc1 as the compound, how does the inhibition [2] read?
The inhibition was 43.8%.

And the CC50 at 48 h [4]?
The CC50 at 48 h was greater than 50 µM.

What about the inhibition [5] of the same compound?
The inhibition was 52.8%.

And the EC50 ([7]; read-out: EC50)?
Its EC50 is 9.27 µM.

What about the EC50 [8] of the same compound?
Its EC50 is 5 µM.

Which results are given for C=C(C)Cn1c(SCC(=O)c2ccccc2)nc2sc3c(c2c1=O)CCCC3?
IC50 [1]: 0.965 µM; inhibition [2]: 64.8%; CC50 at 48 h [4]: > 50 µM; inhibition [5]: 60.4%; EC50 ([7]; read-out: EC50): 5.7 µM

With O=C(CNc1nc2sccc2c(=O)n1C1CC1)c1ccccc1 as the compound, how does the CC50 at 48 h [4] read?
The CC50 at 48 h was greater than 50 µM.

What about the EC50 ([7]; read-out: EC50) of the same compound?
Its EC50 is greater than 20 µM.

For CS(=O)(=O)c1ccc(C(=O)Nc2ccc(Cl)c(-c3ccccn3)c2)c(Cl)c1 [VISMODEGIB], which CC50 at 48 h [4] is on record?
The CC50 at 48 h was greater than 50 µM.

And the EC50 ([7]; read-out: EC50)?
The EC50 was 0.013 µM.

With O=C(CSc1nc2sc3c(c2c(=O)n1C1CC1)CCCC3)c1cccs1 as the compound, how does the inhibition [2] read?
The inhibition was 26.8%.

And the CC50 at 48 h [4]?
The CC50 at 48 h was greater than 50 µM.

What about the inhibition [5] of the same compound?
Its inhibition is 26.5%.

What about the EC50 ([7]; read-out: EC50) of the same compound?
The EC50 was 1.89 µM.

Which CC50 at 48 h [4] does the source give for C=C(C)Cn1c(SCC(=O)c2cccs2)nc2sc3c(c2c1=O)CCOC3 here?
The CC50 at 48 h was greater than 50 µM.

And the EC50 ([7]; read-out: EC50)?
The EC50 was greater than 20 µM.

Which inhibition [2] does the source give for O=C(CSc1nc2ccccc2c(=O)n1C1CC1)c1cccs1 here?
The inhibition was 10.3%.

And the inhibition [3]?
The inhibition was “inactive”.

And the CC50 at 48 h [4]?
The CC50 at 48 h was greater than 50 µM.

And the inhibition [5]?
Its inhibition is 9.9%.

What about the EC50 ([7]; read-out: EC50) of the same compound?
Its EC50 is 0.685 µM.

And the inhibition [6]?
Its inhibition is “inactive”.

Which inhibition [9] does the source give for Cc1c(C(=O)Nc2ccc(N3C[C@@H](C)O[C@@H](C)C3)nc2)cccc1-c1ccc(OC(F)(F)F)cc1 [SONIDEGIB] here?
Its inhibition is -0.2%.

And the CC50 at 48 h [4]?
Its CC50 at 48 h is greater than 50 µM.

What about the inhibition [10] of the same compound?
The inhibition was 5.8%.

And the EC50 ([7]; read-out: EC50)?
Its EC50 is 0.0012 µM.

Which inhibition [2] does the source give for O=C(CSc1nc2sccc2c(=O)n1C1CC1)c1ccccc1 here?
Its inhibition is 13.6%.

And the CC50 at 48 h [4]?
The CC50 at 48 h was greater than 50 µM.

And the inhibition [11]?
The inhibition was “inactive”.

What about the inhibition [5] of the same compound?
Its inhibition is -0.3%.

And the EC50 ([7]; read-out: EC50)?
The EC50 was 0.082 µM.

And the inhibition [6]?
Its inhibition is “inactive”.

Which IC50 [1] does the source give for CCCn1c(SCC(=O)c2cccs2)nc2sc3c(c2c1=O)CCCC3 here?
Its IC50 is 0.486 µM.

And the inhibition [2]?
Its inhibition is 44.9%.

What about the CC50 at 48 h [4] of the same compound?
The CC50 at 48 h was greater than 50 µM.

And the inhibition [5]?
Its inhibition is 39.9%.

And the EC50 ([7]; read-out: EC50)?
Its EC50 is 1.3 µM.

Which inhibition [12] does the source give for CC1=C2C[C@H]3[C@@H](CC=C4CC(=O)CC[C@@]43C)[C@@H]2CCC12OC1C[C@H](C)CN(CCNC(=O)CCCCCNC(=O)CCc3ccccc3)C1[C@H]2C (single isomer, unassigned) here?
The inhibition was “Active”.

Which inhibition [2] does the source give for O=C(CSc1nc2sccc2c(=O)n1C1CC1)c1cccs1 here?
Its inhibition is 5.5%.

And the inhibition [3]?
Its inhibition is “inactive”.

What about the CC50 at 48 h [4] of the same compound?
Its CC50 at 48 h is greater than 50 µM.

What about the inhibition [5] of the same compound?
Its inhibition is -3.3%.

And the EC50 ([7]; read-out: EC50)?
The EC50 was 0.933 µM.

What about the inhibition [6] of the same compound?
The inhibition was “inactive”.

Which results are given for C=C(C)Cn1c(SCC(=O)c2ccncc2)nc2sc3c(c2c1=O)CCCC3?
CC50 at 48 h [4]: > 50 µM; EC50 ([7]; read-out: EC50): 19.8 µM

Which results are given for O=C(COc1nc2sccc2c(=O)n1C1CC1)c1ccccc1?
CC50 at 48 h [4]: > 50 µM; EC50 ([7]; read-out: EC50): > 20 µM

Which results are given for C=C(C)Cn1c(SCC(=O)N2CCOCC2)nc2sc3c(c2c1=O)CCCC3?
CC50 at 48 h [4]: > 50 µM; EC50 ([7]; read-out: EC50): > 20 µM

For C=C(C)Cn1c(SCC(=O)c2cccs2)nc2sc3ccccc3c2c1=O, which CC50 at 48 h [4] is on record?
The CC50 at 48 h was greater than 50 µM.

And the EC50 ([7]; read-out: EC50)?
The EC50 was greater than 20 µM.
